{"source": "patent US8143226B2", "about": "“Tyrosine kinase receptor antagonists and methods of treatment for breast cancer” (The Regents of the University of California, priority 2005, dated 2012)", "key": {"[1]": {"target": "T1, rodent HER2/neu receptor (Rattus norvegicus, UniProt P06494)", "T1 construct": "made in house; host or cells: MCNeuA mouse mammary carcinoma cells (MMTV/neu transgenic), partially purified by wheat germ agglutinin chromatography", "T1 sequence (P06494 23-1257)": "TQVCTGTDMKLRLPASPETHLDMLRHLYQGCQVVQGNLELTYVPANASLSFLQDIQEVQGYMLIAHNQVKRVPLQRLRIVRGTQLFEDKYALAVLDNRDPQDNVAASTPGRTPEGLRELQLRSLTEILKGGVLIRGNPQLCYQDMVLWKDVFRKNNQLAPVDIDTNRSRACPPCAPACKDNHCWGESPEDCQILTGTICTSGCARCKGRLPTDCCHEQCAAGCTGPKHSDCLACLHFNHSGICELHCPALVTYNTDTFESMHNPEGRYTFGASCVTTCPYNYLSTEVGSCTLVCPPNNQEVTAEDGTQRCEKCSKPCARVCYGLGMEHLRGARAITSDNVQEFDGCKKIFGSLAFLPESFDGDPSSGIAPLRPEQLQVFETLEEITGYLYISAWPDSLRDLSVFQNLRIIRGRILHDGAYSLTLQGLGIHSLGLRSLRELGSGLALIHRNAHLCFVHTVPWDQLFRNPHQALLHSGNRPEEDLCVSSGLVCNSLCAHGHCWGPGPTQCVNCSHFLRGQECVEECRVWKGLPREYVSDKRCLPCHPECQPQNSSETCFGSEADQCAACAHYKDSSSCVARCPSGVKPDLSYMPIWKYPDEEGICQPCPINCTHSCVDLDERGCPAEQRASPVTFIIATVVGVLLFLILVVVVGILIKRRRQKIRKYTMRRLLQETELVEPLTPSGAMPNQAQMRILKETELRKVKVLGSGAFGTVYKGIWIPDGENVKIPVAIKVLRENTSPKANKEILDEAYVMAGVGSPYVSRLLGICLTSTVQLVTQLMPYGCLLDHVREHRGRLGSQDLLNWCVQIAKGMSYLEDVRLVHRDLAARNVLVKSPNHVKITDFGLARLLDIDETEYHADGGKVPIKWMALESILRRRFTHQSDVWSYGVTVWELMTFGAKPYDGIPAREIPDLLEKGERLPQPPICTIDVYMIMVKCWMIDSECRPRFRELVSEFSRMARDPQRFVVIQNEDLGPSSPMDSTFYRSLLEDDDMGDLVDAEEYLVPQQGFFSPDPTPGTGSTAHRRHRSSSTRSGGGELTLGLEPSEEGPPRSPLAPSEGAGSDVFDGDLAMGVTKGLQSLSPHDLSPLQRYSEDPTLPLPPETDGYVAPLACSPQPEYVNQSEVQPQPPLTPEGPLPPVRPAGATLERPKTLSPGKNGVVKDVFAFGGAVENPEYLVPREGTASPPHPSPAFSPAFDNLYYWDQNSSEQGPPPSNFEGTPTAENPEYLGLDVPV", "assay": "Autophosphorylation of isolated HER2/neu (western blot)", "type": "biochemical", "details": "preincubation 20 minutes prior to 10 μM ATP", "description": "IGF-1 and HER2/neu receptors were partially purified by WGA chromatography of cells overexpressing the protein of interest. To isolate IGF-1R, CHO cells transfected with and overexpressing the human IGF-1R (CHOIGF-1R) were plated in T-150 flasks and grown in DMEM supplemented with 10% fetal calf serum (FCS) until 80% confluent. Cells were harvested in the basal state and solubilized in 50 mM HEPES, 10% glycerol, 1% Triton X-100, 150 mM NaCl, 5 μM EGTA, 0.24 mg/ml aminoethyl-benzensulfonyl fluoride (AEBSF), 10 μg/ml aprotinin, 25 mM benzamidine, 10 μg soybean trypsin inhibitor, and 5 μg/ml leuptin for one hour at 4° C. Samples were centrifuged for 60 minutes at 100,000 g and solubilized extract collected. Rodent HER2/neu receptors were collected from MCNeuA cells crown under identical conditions and processed similarly. […] WGA fractions containing RTK of interest were determined by SDS page and a western blot that employed antibodies against either the IGF-1R or HER2/neu as appropriate.\nAutophosphorylation of HER2/neu in WGA preparations enriched in this RTK were determined in the absence of ligand. […] Following transfer to nitrocellulose membrane, receptor autophosphorylation was determined by a western blot that employed a phosphospecific antibody against the pNeu (Tyr1248) diluted 1:1000 in Superblock. […] Values were determined by scanning densitometry."}, "[2]": {"system": "Akt/BAD pathway", "assay": "IGF-1 stimulated Akt and BAD phosphorylation in MCF-7 cells (western blot)", "type": "cell-based, human", "details": "1 nM IGF-1", "description": "Inhibition of IGF-1-stimulated activation of serine kinase Akt was determined in the lysates prepared for the IGF-1R phosphotyrosine ELISA described above. 12 μg of sample was subjected to SDS-PAGE, transfer-ed to a nitrocellulose membrane, and […] quantified by blotting overnight at 4 C with a phospho-specific antibody to Akt (ser473) diluted 1:1000 in Superblock. Next, blots were washed with 3 times with TBST, then incubated with HRP conjugated sheep anti-rabbit IgG diluted 1:10,000 in Superblock for 90 minutes at room temperature. Phosphorylation of the apoptotic protein BAD was determined in the same manner by blotting with a phospho-specific antibody to BAD (ser136) (1:1,000)."}, "[3]": {"target": "T2, IGF-IR (Homo sapiens, UniProt P08069)", "T2 construct": "endogenous in cells; host or cells: SH-SY5Y and SHEP", "T2 sequence (P08069 31-1367)": "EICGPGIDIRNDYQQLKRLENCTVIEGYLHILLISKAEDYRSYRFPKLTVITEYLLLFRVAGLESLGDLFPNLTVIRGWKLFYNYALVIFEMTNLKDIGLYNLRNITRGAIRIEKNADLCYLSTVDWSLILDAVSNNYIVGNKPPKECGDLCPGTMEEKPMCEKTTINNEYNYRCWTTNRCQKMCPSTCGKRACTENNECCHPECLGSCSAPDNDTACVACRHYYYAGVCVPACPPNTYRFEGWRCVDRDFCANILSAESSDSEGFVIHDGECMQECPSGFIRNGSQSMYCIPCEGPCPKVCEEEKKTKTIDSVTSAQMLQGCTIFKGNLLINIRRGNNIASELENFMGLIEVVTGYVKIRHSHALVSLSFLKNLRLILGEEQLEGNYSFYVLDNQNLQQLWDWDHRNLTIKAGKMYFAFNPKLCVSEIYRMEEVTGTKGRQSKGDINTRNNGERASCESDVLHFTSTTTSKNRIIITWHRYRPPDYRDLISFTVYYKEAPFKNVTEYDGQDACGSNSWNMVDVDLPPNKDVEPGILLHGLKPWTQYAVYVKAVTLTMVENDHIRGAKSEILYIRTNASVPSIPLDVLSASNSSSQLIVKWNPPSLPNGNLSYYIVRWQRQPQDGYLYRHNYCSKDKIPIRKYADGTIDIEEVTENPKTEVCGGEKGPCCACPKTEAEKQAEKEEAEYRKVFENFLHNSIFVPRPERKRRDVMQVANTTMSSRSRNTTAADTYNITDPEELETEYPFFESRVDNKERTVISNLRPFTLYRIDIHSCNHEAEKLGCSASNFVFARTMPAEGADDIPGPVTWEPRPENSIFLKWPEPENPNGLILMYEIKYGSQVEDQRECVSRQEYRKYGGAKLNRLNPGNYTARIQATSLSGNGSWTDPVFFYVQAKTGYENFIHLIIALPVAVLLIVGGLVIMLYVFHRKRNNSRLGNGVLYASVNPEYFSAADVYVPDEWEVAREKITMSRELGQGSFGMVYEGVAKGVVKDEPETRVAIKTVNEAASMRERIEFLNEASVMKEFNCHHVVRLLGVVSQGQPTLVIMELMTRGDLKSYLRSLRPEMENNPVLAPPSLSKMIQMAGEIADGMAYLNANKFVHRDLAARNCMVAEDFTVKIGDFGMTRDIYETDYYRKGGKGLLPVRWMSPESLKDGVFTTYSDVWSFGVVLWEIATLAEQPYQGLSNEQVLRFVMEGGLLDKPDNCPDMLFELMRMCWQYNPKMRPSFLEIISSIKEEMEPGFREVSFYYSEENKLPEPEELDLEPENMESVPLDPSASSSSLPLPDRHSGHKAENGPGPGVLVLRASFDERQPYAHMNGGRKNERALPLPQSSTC", "assay": "IGF-IR phosphorylation ELISA in neuroblastoma cells", "type": "cell-based", "details": "SHEP and SH-SY5Y cells, 60 μM NDGA 1 h, 1 nM IGF-I 10 min", "description": "IGF-1R phlosphorylation ELISA. SH-SY5Y and SHEP cells were grown to 80% confluence in DMEM/10% calf serum, then serum-starved for 4 h. […] Some cultures were then treated with 1 nM IGF-I for 10 min. The medium was removed, cultures rinsed 3× in cold PBS, and lysis buffer (120 mM HEPES, 300 mM NaCl, 2 mM sodium orthovanadate, and 1 mM phenylmethylsufonylfluoride (PMSF)) was added. Cultures were rocked in lysis buffer at 4° C. for 1 h. 96-well plates were coated with αIR-3 antibody in 50 mM NaHCO3, pH 9.0, for 2 h at RT. Plates were rinsed 3× in tris-buffered saline +0.1% Tween (TBST), then blocked with SuperBlock (Pierce, Rockford, Ill.) for 30 min at RT. Each well of the ELISA plate received 30 μg of lysate protein from the cell cultures, followed by 24 h incubation at 4° C. Plates were rinsed 5× with TBST, and HRP-conjugated anti-phosphotyrosine antibody was added (1:2000, diluted in 120 mM HEPES, 300 mM NaCl, 2 mM sodium orthovanadate. and 1 mM PMSF. 1% bovine serum albumin, 1 mg/ml bacitracin, and 0.5% Tween-20) for 2 h at RT. Plates were again rinsed 5× in TBST, and TMB (Pierce) was added until blue color was sufficiently developed. […] Each lysate was run in triplicate, and the experiment was repeated 3 times."}, "[4]": {"system": "ERK 1 and 2", "assay": "IGF-stimulated ERK phosphorylation in neuroblastoma cells", "type": "cell-based, human", "details": "SH-SY5Y cells, NDGA 1 h, 10 nM IGF-I 15 min", "description": "Detection of phospho-Akt and phospho-Erk. […] Then, some cultures were treated with 10 nM IGF-I for 15 min. Cultures were immediately placed on ice, the medium was removed, and the cells were lysed in modified RIPA buffer (20 mM Tris, 150 mM NaCl, 1 mM EDTA, 1 mM EGTA, 1% Triton X-100, 0.1% sodium dodecyl sulfate, and 1% deoxycholate). Fifty μg of protein from each sample were separated via SDS-PAGE and transfened to nitrocellulose. Phospho- and total-Akt and -Erk were detected by immunoblotting."}, "[5]": {"system": "SH-SY5Y and SHEP cells", "assay": "IGF-I stimulated motility of neuroblastoma cells on gold particle-coated coverslips", "type": "cell-based, human", "details": "30 μM NDGA, 1 nM IGF-I, 6 h", "description": "Measurement of cell motility. Neuroblastoma cells were plated on gold particle-coated coverslips (prepared as described in (30)) in serum-free media at a density of 25,000 cells per coverslip. The cells were incubated for 2 h to allow adhesion to the coverslip. […] 1 nM IGF-I was then added to some wells. Incubation continued for 6 h, followed by fixation with 3.5% glutaraldehyde. Coverslips were mounted on glass slides, then viewed on a Lietz Orthoplan inverted microscope attached to a Sony videoprocessor. Digital images of the tracks etched into the gold by the cells from 3 separately treated coverslips per condition were collected at 200× magnification using Adobe Photoshop software. For each condition, the areas of 120 tracks made by individual cells were measured with NIH Image 1.61 software."}, "[6]": {"system": "MCF-7/neo cells", "assay": "Tamoxifen and/or NDGA growth inhibition of MCF-7/neo cells (CyQuant)", "type": "cell-based", "details": "Homo sapiens, MCF7", "description": "Cells were estrogen-starved for three days in DMEM containing 10% charcoal-[…]-stripped FCS (CDSS) prior to their plating in 96 well plates. Cells were plated in 100 μl of the same media, allowed to adhere overnight, and then were switched to DMEM+10% CDSS supplemented with 100 pM estrogen. […] The media and inhibitors were refreshed on day 3, the cultures were harvested on day 6, and a CyQuant assay was performed as described above."}}}
{"compound": "CC(Cc1ccc(O)c(O)c1)C(C)Cc1ccc(O)c(O)c1", "note": "(stereo not shown) [NDGA, nordihydroguaiaretic acid]", "values": [{"measurement": "ATP-induced increase in ligand-independent HER2/neu autophosphorylation", "setting": "[1]", "value": "abolished"}, {"measurement": "IGF-1 stimulated phosphorylation of Akt and BAD", "setting": "[2]", "value": "reduced in a dose-dependent manner"}, {"measurement": "IGF-I stimulated IGF-IR tyrosine phosphorylation", "setting": "[3]", "value": "inhibited"}, {"measurement": "IGF-stimulated phosphorylation of ERK", "setting": "[4]", "value": "dose-dependent inhibitory effect"}, {"measurement": "IGF-I induced increase in motility", "setting": "[5]", "value": "strongly suppressed"}, {"measurement": "inhibition at 10 µM", "setting": "[6]", "value": 23, "unit": "%"}, {"measurement": "inhibition at 15 µM", "setting": "[6]", "value": 55, "unit": "%"}]}
